# Patent US20120149663A1, “BORONIC ACID COMPOSITIONS AND METHODS RELATED TO CANCER” (GEORGETOWN UNIVERSITY, priority 2009, published 2012)
# Where two headings read alike, the source gives them in different places.
# What was measured:
# [1] = tested on: ER+, estrogen-dependent human breast cancer MCF-7 cell line; experiment: Cell growth assay (WST-1 assay), MCF-7; type: cell-based; settings: for MCF-7 cell growth inhibition (in words): MCF-7, WST-1
# Experimental: Results are the mean value of triplicate samples. […] Cell viability was finally determined by adding WST-1 reagent and measuring the optical absorbance at […] and 630 nm as described in “Materials and methods”. […] The IC50 for each cell line was calculated using graph pad prism. Data are expressed as mean (SEM) of triplicate samples. […] The IC50 for each cell line was calculated using graph pad prism. Data are expressed as mean (SEM) of triplicate sample. ER-Positive (MCF-7) human breast carcinoma cell line was used in this study. The human breast cell lines MCF-7 (HTB-22) were provided by the tissue culture core facility at Lombardi Comprehensive Cancer Center, Georgetown University Medical Center. […] Robert Clarke from the Georgetown University Medical Center. […] The effect of cis-4 and trans-4 or resveratrol on cell growth was determined by WST-1 assay. Briefly, cells were seeded into a 96-well plate at 3,500 cells per well in DMEM containing 10% FBS. After overnight incubation, cells were treated with the compounds (1-100 μM) for 48 h and 72 h at 37° C. Control cells were treated with an equal amount of DMSO. After the indicated incubation time, cell viability was measured by WST-1 assay according to the manufacturer's instructions (Roche). […] The water soluble tetrazolium salt of WST-1 is converted into orange formazan by dehydrogenase in the mitochondria of living cells. The formazan absorbance, which correlates to the number of living cells, was recorded at wavelengths of 450 nm and 630 nm using a microplate reader (Ultramark, Microplate Imaging System, Bio-Rad). The GI50 was calculated from the graph of the log of compound concentration versus the fraction of the surviving cells.
# [2] = tested on: CL 10.3 cells (MCF-7 MDR, over-expresses the MDR gene); experiment: Cell growth assay (WST-1 assay), multidrug resistant CL 10.3; type: cell-based, human; settings: for Activity in multidrug resistant cells (in words): CL 10.3 compared with MCF-7; for MDR GI50/non-MDR GI50: CL 10.3 versus MCF-7, 72 h; for GI50: CL 10.3 Breast (MDR), 72 h, read-out: Cell Survival (WST-1 assay, GI50, 72 h) CL 10.3; for P-glycoprotein substrate (in words): inferred from activity in MDR cell line CL 10.3
# Experimental: IC50 value (the concentration yielding 50% growth inhibition) was extrapolated from the graph of the log of compound concentration versus the fraction of surviving cells. The 1050 for each cell line was calculated using graph pad prism. Data are expressed as mean (SEM) of triplicate sample. Results are mean value of triplicate samples.
# ER-Positive (MCF-7) human breast carcinoma cell line was used in this study. The human breast cell lines MCF-7 (HTB-22) were provided by the tissue culture core facility at Lombardi Comprehensive Cancer Center, Georgetown University Medical Center. MCF-7^MDR (CL 10.3) cells were a gift from Dr. Robert Clarke from the Georgetown University Medical Center. MCF-7, and CL 10.3 cells were maintained in DMEM (Biofluids, Frederick, Md.) supplemented 10% heat inactivated fetal bovine serum (FBS), 2 mM L-glutamine, and 50 μg/mL each of antibiotics, namely penicillin, streptomycin, and neomycin at 37° C. in a humidified incubator containing 5% CO2.
# (§1) The effect of cis-4 and trans-4 or resveratrol on cell growth was determined by WST-1 assay. Briefly, cells were seeded into a 96-well plate at 3,500 cells per well in DMEM containing 10% FBS. After overnight incubation, cells were treated with the compounds (1-100 μM) for 48 h and 72 h at 37° C. Control cells were treated with an equal amount of DMSO. After the indicated incubation time, cell viability was measured by WST-1 assay according to the manufacturer's instructions (Roche). Briefly, 20 μL of WST-1 solution was added in each well and incubated for 2-4 hours. The water soluble tetrazolium salt of WST-1 is converted into orange formazan by dehydrogenase in the mitochondria of living cells. The formazan absorbance, which correlates to the number of living cells, was recorded at wavelengths of 450 nm and 630 nm using a microplate reader (Ultramark, Microplate Imaging System, Bio-Rad). The GI50 was calculated from the graph of the log of compound concentration versus the fraction of the surviving cells.
# MCF-7 cells [3] = settings: MCF-7, 300 μM, Clin Cancer Res 2002; cited from earlier work
# MCF-7 cells [4] = experiment: Cell cycle analysis by flow cytometry (propidium iodide); type: cell-based, human; settings: MCF-7, 30 μM, 16, 24, 48 h
# Experimental: FIGS. 10A and 10B show the effect of compounds on cell cycle distribution in MCF-7 breast cancer cell lines. A. […] B. Percentage of DNA distribution of trans-4 in G1 phase was presented in a bar graph. Results are represented as a mean of triplicate samples. The experiment was repeated thrice with identical results. The effect of cis-4, trans-4 or resveratrol on cell cycle progression was analyzed by flow cytometry. Cells were seeded in 6-well plates and treated with 30 μM of compound 1 or 2 at different time intervals (16, 24, 48 h). Cells were trypsinized, centrifuged at 2000 rpm and cell pellets were collected. Pellets were washed with 1×PBS, permeabilized with 70% (v/v) ethanol, resuspended in 1 ml of PBS containing 1 mg/ml RNase and […] propidium iodide, incubated in the dark for 30 min at room temperature, and analysed by a FACSort Flow Cytometer (Becton Dickinson, San jose, CA). The cell cycle distribution was evaluated on DNA plots using the Modfit software (Verity softwarehouse, Topsham, Me.).
# [5] = tested on: E2-mediated MCF-7 cell growth; experiment: DNA content in estrogen mediated MCF-7 cell growth; type: cell-based, human; settings: E2 10^−9M constant
# Experimental: After 5 days incubation, the DNA content of the treated cells was measured using a DNA fluorescence kit (Bio Rad #170-2480). Results are shown as the mean of triplicate samples±SD. The experiment was repeated twice with identical results. […] Cells were then seeded in 24 well plates at 10000 cells per well in 1 ml of estrogen depleted media. […] Cells were incubated at 37° C. for an additional 4 days. Media were removed and cells were frozen at −78° C. overnight and the DNA content in each well was measured according to the manufacturer's protocol (DNA Quantification Kit, Bi0-Rad). Results are represented as mean of triplicate sample and repeated the experiment with identical results.
# MCF-7 cells [6] = experiment: Combination with flavopiridol, WST-1 cell viability; type: cell-based, human; settings: for Sensitization to flavopiridol (in words): MCF-7; for GI50: Homo sapiens, MCF7
# Experimental: as §1, with “A Wst-1 assay was performed to measure the cell viability as mentioned in the methods. GI50 are the average of triplicate samples and the experiment was repeated thrice with identical results. The effect” for “The effect”, “instructions (Roche). […] The water” for “instructions (Roche). Briefly, 20 μL of WST-1 solution was added in each well and incubated for 2-4 hours. The water”
# [7] = tested on: cdk4, cdk2, cyclin E, cyclin D1 and pRb in MCF-7 cells; experiment: Western blot of G1 cell cycle proteins; type: cell-based, human; settings: MCF-7, 24 h and 48 h, immunoblot
# Experimental: MCF-7 cells were treated with the indicated concentrations of compound 2 for 24 hours and 48 hours and cell lysates were analyzed by immunoblotting. Protein expression of positive regulators such as cyclin D1, Cdk4, cyclinE, Cdk2 and phospho-Rb were detected by their specific antibodies. Human β-actin was analyzed as a control of gel loading. Twenty-micrograms of lysate was used for each experimental condition.
# Western blotting was performed as previously published (J Biol Chem 2004, 279, 38903-38911). In brief, cell pellets were collected at the indicated times after treatment with compounds, suspended in 100 μl, of lysis buffer (50 mM Tris-HCl, 150 mM NaCl, 1 mM EGTA, 1 mM EDTA, 20 mM NaF, […], 0.5% NP-40, 1% Triton X-100, 1 mM PMSF, 5 μg/ml aprotinin, 5 μg/ml leupeptin), vortexed twice and incubated in an ice bath for 30 min Lysates were cleared by centrifugation at 12000 rpm for 15 min at 4° C. and protein was estimated by detergent compatible BCA protein assay kit (Pierce). Equivalent amounts of total proteins were resolved by SDS-PAGE (10%) and transferred to PVDF membranes. Membranes were blocked by 5% non-fat powdered milk in TBST overnight. […]
# [8] = Stability compared with resveratrol; type: physicochemical
# [9] = MCF-7, 48 h, read-out: Cell Survival (WST-1 assay, GI50) 48 hours
# [10] = MCF-7, 72 h, read-out: Cell Survival (WST-1 assay, GI50) 72 hours
compound,measurement,setting,value
"CC(=O)O[C@H]1C(=O)[C@@]2(C)[C@H]([C@H](OC(=O)c3ccccc3)[C@]3(O)C[C@H](OC(=O)[C@H](O)[C@@H](NC(=O)c4ccccc4)c4ccccc4)C(C)=C1C3(C)C)[C@]1(OC(C)=O)CO[C@@H]1C[C@@H]2O [Paclitaxel, reference compound]",MCF-7 cell growth inhibition (in words),[1],strongly inhibits MCF-7 cell growth
same,Activity in multidrug resistant cells (in words),[2],has no effect on CL 10.3 cells
same,MDR GI50/non-MDR GI50,[2],">25,000"
same,GI50,"[2]; Homo sapiens, MCF7",> 50 µM
"Oc1ccc(C=Cc2cc(O)cc(O)c2)cc1 [Resveratrol, reference compound]",GI50,"[1]; Homo sapiens, MCF7, MCF-7, 48 h, read-out: Cell Survival (WST-1 assay, GI50) 48 hours",[…]
same,Cell cycle arrest by resveratrol in previous studies (in words),MCF-7 cells [3],S-phase cell cycle arrest
same,Effect on cell cycle distribution (in words),MCF-7 cells [4],works at the G2/M1 phase
same,Effect on E2-mediated MCF-7 cell growth (in words),[5],antagonizes E2-mediated MCF-7 cell growth
same,Sensitization to flavopiridol (in words),MCF-7 cells [6],does not sensitize the MCF-7 cells incubated with flavopiridol
"CN1CC[C@H](c2c(O)cc(O)c3c(=O)cc(-c4ccccc4Cl)oc23)[C@H](O)C1 [flavopiridol, reference compound]",GI50,"MCF-7 cells [6]; MCF-7, 10 μM trans-4 for 24 hours then flavopiridol 48 hours, read-out: GI50, combination of trans-4 with flavopiridol",0.018 µM
same,GI50,"MCF-7 cells [6]; MCF-7, flavopiridol alone, 48 h, read-out: GI50, flavopiridol only",0.3 µM
"COc1ccc(/C=C/c2cc(OC)c(OC)c(OC)c2)cc1B(O)O [trans-4, 2-Methoxy-5-[(E)-2-(3,4,5-trimethoxyphenyl)vinyl]boronic acid]",GI50,[1]; [9],36.6 µM
same,GI50,[1]; [10],31.1 ± 0.05 µM
same,Activity relative to Resveratrol,[1]; breast cancer,3 fold
same,Expression level of G1 cell cycle proteins (in words),[7]; listed as YK-5-104,decreases the pRb levels
same,Expression level of G1 cell cycle proteins (in words),[7]; listed as compound 2,"decreases the expression level of cdk4, cdk2, cyclin E, cyclin D1 and pRb"
same,Effect on E2-mediated MCF-7 cell growth (in words),[5],does not have any effect on E2-induced cell growth
same,Stability compared with Resveratrol (in words),[8],more stable than Resveratrol
same,Sensitization to flavopiridol (in words),MCF-7 cells [6],modulates the flavopiridol mediated cell viability
same,Fold increase in growth inhibition compared with trans-4,"MCF-7 cells [6]; MCF-7, opposite administration: 100 nM flavopiridol 24 hours then trans-4",7 fold
same,Fold increase of flavopiridol mediated growth inhibition compared with flavopiridol alone,"MCF-7 cells [6]; MCF-7, trans-4 then flavopiridol",16.6 fold
same,GI50,[2],49.09 ± 0.001 µM
same,Activity in multidrug resistant cells (in words),[2],equipotent in CL 10.3 and MCF-7 cells
same,Activity in multidrug resistant cells (in words),[2]; listed as Compound 2,can work on multidrug resistant cell lines
same,MDR GI50/non-MDR GI50,[2],1.57
same,P-glycoprotein substrate (in words),[2],likely not a substrate for P-glycoprotein
same,P-glycoprotein substrate (in words),[2]; listed as YK-5-104,not a substrate for p-glycoprotein
"[(Z)-2-(3,5-dimethoxyphenyl)vinyl]phenylboronic Acid [cis-4]",GI50,[1]; [9],> 100 µM
same,GI50,[1]; [10],> 100 µM
same,MCF-7 cell growth inhibition (in words),[1],does not show any growth inhibition at 100 μM
